According to the NIST ThermoML archive (doi:10.1021/je060271a):
Values joined by “and” are separate entries in the source; they are usually repeats but may differ in a detail not shown here. Equal entries are not always repeated.

Conditions: 343.15 K, Liquid, Vibrating tube method

CCCCCCC(=O)OCC(COC(=O)CCCCCC)(COC(=O)CCCCCC)COC(=O)CCCCCC [pentaerythritol tetraheptanoate]
Conditions | mass density
28615 kPa | 960.4 kg/m3
28635 kPa | 960.4 kg/m3
28662 kPa | 960.4 kg/m3
28700 kPa | 960.4 kg/m3
28729 kPa | 960.5 kg/m3
28739 kPa | 960.4 kg/m3
28764 kPa | 960.6 kg/m3
28779 kPa | 960.5 kg/m3
28794 kPa | 960.6 kg/m3
28823 kPa | 960.7 kg/m3
28826 kPa | 960.6 kg/m3
28858 kPa | 960.6 kg/m3
28865 kPa | 960.6 kg/m3
28887 kPa | 960.6 kg/m3
28912 kPa | 960.6 kg/m3
28918 kPa | 960.5 kg/m3
28948 kPa | 960.6 kg/m3
28952 kPa | 960.6 kg/m3
28985 kPa | 960.7 kg/m3
28992 kPa | 960.6 kg/m3
29016 kPa | 960.7 kg/m3
29032 kPa | 960.7 kg/m3
29046 kPa | 960.8 kg/m3
29076 kPa | 960.6 kg/m3
29081 kPa | 960.7 kg/m3
29112 kPa | 960.7 kg/m3
29121 kPa | 960.5 kg/m3
29142 kPa | 960.8 kg/m3
29163 kPa | 960.7 kg/m3
29178 kPa | 960.8 kg/m3
29208 kPa | 960.9 kg/m3
29212 kPa | 960.7 kg/m3
29238 kPa | 960.8 kg/m3
29254 kPa | 960.8 kg/m3
29274 kPa | 960.9 kg/m3
29305 kPa | 960.9 kg/m3
29308 kPa | 960.7 kg/m3
29336 kPa | 960.8 kg/m3
29344 kPa | 960.9 kg/m3
29372 kPa | 961 kg/m3
29387 kPa | 960.8 kg/m3
29434 kPa | 961 kg/m3
29435 kPa | 960.9 kg/m3
29461 kPa | 960.9 kg/m3
29471 kPa | 961.1 kg/m3
29503 kPa | 961 kg/m3
29534 kPa | 961 kg/m3
29540 kPa | 961 kg/m3
29564 kPa | 961 kg/m3
29571 kPa | 960.8 kg/m3
29597 kPa | 961.1 kg/m3
29602 kPa | 961.2 kg/m3
29628 kPa | 960.8 kg/m3
29634 kPa | 961.1 kg/m3
29654 kPa | 961 kg/m3
29666 kPa | 961 kg/m3
29679 kPa | 961 kg/m3
29704 kPa | 961.1 kg/m3
29705 kPa | 961.1 kg/m3
29735 kPa | 961.1 kg/m3
29736 kPa | 961.1 kg/m3
29764 kPa | 961.1 kg/m3
29767 kPa | 961.1 kg/m3
29790 kPa | 961.3 kg/m3
29805 kPa | 961.3 kg/m3
29816 kPa | 961.1 kg/m3
29839 kPa | 961.1 kg/m3
29846 kPa | 961.2 kg/m3
29871 kPa | 961.3 kg/m3
29873 kPa | 961.2 kg/m3
29900 kPa | 961.1 kg/m3
29903 kPa | 961.3 kg/m3
29931 kPa | 961.1 kg/m3
29935 kPa | 961.2 kg/m3
29958 kPa | 961.1 kg/m3
29974 kPa | 961.2 kg/m3
29984 kPa | 961.3 kg/m3
30006 kPa | 961.3 kg/m3
30016 kPa | 961.3 kg/m3
30043 kPa | 961.3 kg/m3
30045 kPa | 961.4 kg/m3
30070 kPa | 961.4 kg/m3
30077 kPa | 961.3 kg/m3
30102 kPa | 961.3 kg/m3
30109 kPa | 961.4 kg/m3
30129 kPa | 961.4 kg/m3
30148 kPa | 961.4 kg/m3
30157 kPa | 961.4 kg/m3
30180 kPa | 961.4 kg/m3
30184 kPa | 961.5 kg/m3
30213 kPa | 961.5 kg/m3
30216 kPa | 961.4 kg/m3
30243 kPa | 961.5 kg/m3
30247 kPa | 961.4 kg/m3
30275 kPa | 961.4 kg/m3
30288 kPa | 961.5 kg/m3
30302 kPa | 961.4 kg/m3
30321 kPa | 961.5 kg/m3
30330 kPa | 961.5 kg/m3
30354 kPa | 961.6 kg/m3
30363 kPa | 961.5 kg/m3
30388 kPa | 961.6 kg/m3
30391 kPa | 961.6 kg/m3
30419 kPa | 961.6 kg/m3
30428 kPa | 961.5 kg/m3
30446 kPa | 961.5 kg/m3
30461 kPa | 961.6 kg/m3
30481 kPa | 961.6 kg/m3
30495 kPa | 961.6 kg/m3
30510 kPa | 961.7 kg/m3
30528 kPa | 961.6 kg/m3
30538 kPa | 961.6 kg/m3
30568 kPa | 961.6 kg/m3
30571 kPa | 961.6 kg/m3
30599 kPa | 961.6 kg/m3
30602 kPa | 961.8 kg/m3
30627 kPa | 961.7 kg/m3
30642 kPa | 961.7 kg/m3
30660 kPa | 961.6 kg/m3
30675 kPa | 961.7 kg/m3
30688 kPa | 961.8 kg/m3
30710 kPa | 961.8 kg/m3
30716 kPa | 961.7 kg/m3
30744 kPa | 961.7 kg/m3
30778 kPa | 961.7 kg/m3
30785 kPa | 961.7 kg/m3
30806 kPa | 961.8 kg/m3
30819 kPa | 961.8 kg/m3
30835 kPa | 961.8 kg/m3
30860 kPa | 961.8 kg/m3
30870 kPa | 961.7 kg/m3
30894 kPa | 961.8 kg/m3
30900 kPa | 961.7 kg/m3
30928 kPa | 961.8 kg/m3 and 962 kg/m3
30956 kPa | 961.9 kg/m3
30970 kPa | 962 kg/m3
30990 kPa | 961.7 kg/m3
31004 kPa | 961.9 kg/m3
31019 kPa | 961.9 kg/m3
31040 kPa | 962.1 kg/m3
31048 kPa | 961.8 kg/m3
31081 kPa | 962 kg/m3
31082 kPa | 961.8 kg/m3
31111 kPa | 962 kg/m3
31116 kPa | 962 kg/m3
31145 kPa | 962.1 kg/m3
31151 kPa | 962 kg/m3
31174 kPa | 962.1 kg/m3
31193 kPa | 962.1 kg/m3
31203 kPa | 961.9 kg/m3
31229 kPa | 962.1 kg/m3
31238 kPa | 962 kg/m3
31264 kPa | 962.1 kg/m3
31268 kPa | 962 kg/m3
31298 kPa | 962.1 kg/m3
31306 kPa | 962 kg/m3
31327 kPa | 962 kg/m3
31342 kPa | 962.2 kg/m3
31362 kPa | 962.1 kg/m3
31377 kPa | 962 kg/m3
31392 kPa | 962.1 kg/m3
31420 kPa | 962.3 kg/m3
31427 kPa | 962.1 kg/m3
31456 kPa | 962 kg/m3
31457 kPa | 962.2 kg/m3
31486 kPa | 962.2 kg/m3
31492 kPa | 962.3 kg/m3
31516 kPa | 962.2 kg/m3
31528 kPa | 962.2 kg/m3
31552 kPa | 962.2 kg/m3
31571 kPa | 962.3 kg/m3
31582 kPa | 962.3 kg/m3
31608 kPa | 962.4 kg/m3
31611 kPa | 962.3 kg/m3
31644 kPa | 962.3 kg/m3
31647 kPa | 962.2 kg/m3
31678 kPa | 962.4 kg/m3
31688 kPa | 962.3 kg/m3
31715 kPa | 962.3 kg/m3
31725 kPa | 962.5 kg/m3
31745 kPa | 962.3 kg/m3
31761 kPa | 962.4 kg/m3
31775 kPa | 962.4 kg/m3
31805 kPa | 962.4 kg/m3
31807 kPa | 962.4 kg/m3
31841 kPa | 962.4 kg/m3
31844 kPa | 962.4 kg/m3
31871 kPa | 962.5 kg/m3
31874 kPa | 962.4 kg/m3
31905 kPa | 962.5 kg/m3
31914 kPa | 962.5 kg/m3
31942 kPa | 962.3 kg/m3
31958 kPa | 962.4 kg/m3
31972 kPa | 962.6 kg/m3
32003 kPa | 962.4 kg/m3
32009 kPa | 962.5 kg/m3
32040 kPa | 962.6 kg/m3
32041 kPa | 962.6 kg/m3
32071 kPa | 962.6 kg/m3
32078 kPa | 962.5 kg/m3
32104 kPa | 962.5 kg/m3
32115 kPa | 962.6 kg/m3
32136 kPa | 962.5 kg/m3
32160 kPa | 962.6 kg/m3
32173 kPa | 962.5 kg/m3
32199 kPa | 962.6 kg/m3
32205 kPa | 962.6 kg/m3
32236 kPa | 962.7 kg/m3
32237 kPa | 962.7 kg/m3
32274 kPa | 962.7 kg/m3
32282 kPa | 962.7 kg/m3
32305 kPa | 962.7 kg/m3
32320 kPa | 962.7 kg/m3
32337 kPa | 962.6 kg/m3
32358 kPa | 962.7 kg/m3
32368 kPa | 962.7 kg/m3
32403 kPa | 962.8 kg/m3
32406 kPa | 962.7 kg/m3
32438 kPa | 962.8 kg/m3
32441 kPa | 962.8 kg/m3
32471 kPa | 962.8 kg/m3
32480 kPa | 962.9 kg/m3
32509 kPa | 962.8 kg/m3
